In PMC7179958 (CPT: Pharmacometrics & Systems Pharmacology, 2020):

Assays:
[1] = Uptake of pitavastatin and eltrombopag in cryopreserved human hepatocytes (oil spin method), comeasurement, micro‐rate constant mechanistic model; assay type: in vitro ADME; settings: human; model 1; conditional mode (minimum‐maximum) for 1 × 10^6 cells
Procedure: (§1) Human hepatocytes were obtained from BioIVT (Brussels, Belgium; lot number: LYB; 10 donor LiverPool (8 Caucasians, 1 African American, and 1 Hispanic) and thawed according to supplier guidelines in Leibovitz L15 medium. Hepatocytes were kept on ice prior to use and were used within 3 hours of defrosting.
(§2) Cells were separated using an oil spin method similar to the literature. ^11 , ^17 After separation, the tubes were frozen on dry ice and the bottom layer was cut off.
(§3) A dilution factor of 100 was used to scale from pmol/mL/1 × 10^5 cells to nmol/mL/1 × 10^6 cells.
(§4) Passive rate constants for movement into and out of the cell (k f.X and k bX, respectively) as well as uptake transporter‐mediated rate constants for association to the transporter (k aX) and dissociation (k dX) and translocation (k tX) from the transporter into the medium and cell, respectively. […] The sets of ODEs for all the models (models 1–4; Table 1 ) tested for structural identifiability and used for parameter estimation are included in the Supplemental Material .
(§5) Parameter estimation was conducted within Monolix 2018 R2 (Lixoft, Antony, France) for each concentration and experiment as an individual data set, where to ensure positivity, a log‐normal distribution was assumed for each parameter, with a proportional residual error model for the observations.
(§6) Hepatocyte Incubations. […] Eltrombopag was dissolved in DMSO to give 30 µmol/mL, then diluted 333-fold to 90 nmol/mL in Leibovitz L15 medium. […] Briefly, 0.5 mL microtubes (12049877, Thermo-Fisher Scientific, Gothenburg, Sweden) layered with 15 µL of 4 % cesium chloride onto which 140 µL of 8:2 silicone oil: mineral oil, with oil red O was added. Samples were taken by transferring 100 µL of hepatocyte suspension into the microtube and spun for 15 s in a Minispin centrifuge (Eppendorf, Horsholm, Denmark), during which time the hepatocytes passed through the oil into the cesium chloride bottom layer. The tubes were then frozen on dry ice and the bottom layer cut off once frozen into a 1 mL deep well plate (260252, Thermo-Fisher Scientific, Gothenburg, Sweden).
(§7) Sample Extraction. 50 µL of water suitable for UPLC (MilliQ ELGA water, Merck-Millipore, Solna, Sweden) and 150 µL of stop solution (50:50 MeOH:MeCN, containing 0.8 % formic acid and 4 pmol/mL 5,5-diethyl-1,3-diphenyl-2-iminobarbituric acid as internal standard) were added to the frozen samples of the cut-off tube bottoms. Samples were mixed on a plate shaker for 1 h and then stored at – 80 °C overnight. Prior to analysis, samples were defrosted and mixed for 30 min before centrifugation of the plates at 4000 g for 20 min at 4 °C. Samples were transferred to a conical bottomed 96 well plate for analysis (249944, Thermo-Fisher Scientific, Gothenburg, Sweden) and diluted 1:1 with MilliQ ELGA water.
(§8) Mechanistic Modeling. […] An estimate for the total amount of transporters (To) can be obtained during the mechanistic modeling process (9, 10), and therefore Tf can be replaced using the conservation law during parameter estimation:
(§9) Parameter estimation for all model were conducted within the Monolix suite 2018 R2 (Lixoft, Antony, France) where to ensure positivity, a log-normal distribution was assumed for each parameter in the candidate models, together with a proportional residual error model for the observations.

human hepatocytes [2] = test: as above; assay type: in vitro ADME
Procedure: as §1, §2, §3, §4, §5, §6, §7, §8, §9

[3] = Fraction unbound in hepatocytes, Rapid Equilibrium Dialysis (RED) device; assay type: in vitro ADME; settings: human, heat inactivated hepatocytes
Procedure: Fraction Unbound in Hepatocytes. The estimation of the fraction unbound in hepatocytes at equilibrium can be obtained using multiple techniques: heat inactivated hepatocytes (3); linear regression obtained using the logD7.4 (4); parameter estimation (1, 3, 5, 6) or as separate binding rate constants determined experimentally (7). […] The RED device works with low volumes across a medium chamber (500 µL, white) and incubation chamber containing the hepatocytes (300 µL, red), and as such has been reported to even out the non-specific binding (NSB) between the membrane and wells, thereby improving recovery (8). The free fraction in the incubation (fu.inc) is calculated as:
fu.inc= [medium chamber] Whiteincubation chamber(Red) . (Eq.S1)
The amount of non-specific binding (NSB) to the labware is important to understand the recovery from the RED device experiment to evaluate the reliability of fu.inc: […]

[4] = Semimechanistic PBPK model simulation in simulated healthy volunteers; design: species or system human
Description: Uptake is inhibited by the opposing drug in X 3 via the respective uptake concentration at half of the maximum uptake velocity (K m.up.X) shown as the inhibition constant (K I.up). Passive movement of drug into and out of the liver is through clearances P dif.X and P def.X, respectively. Both drugs are cleared through biliary excretion (CLbi.X) into the gallbladder (X 5), and into X 2 where they can be reabsorbed.
The micro‐rate constants for transporter‐mediated uptake and passive uptake were scaled to macro‐rate constants (see Table 2 ) and then empirically scaled up to the human body (83 kg, healthy adult; ^23 see Table 2 ).
The ODE PBPK model (see Figure 1 for schematic and Supplemental Material for the set of ODEs) was developed using desolve ^27 in R‐studio (v1.1.463, R‐Studio Inc., Boston, MA) running R‐project version 3.6.0 ^28 and was similar to that used for eltrombopag and rosuvastatin. ^5 All figures in this article were generated either within Inkscape (0.93, Inkscape.org, Boston, MA) or cowplot, ggplot2, ^29 , ^30 extrafont, ^31 and Cairo. ^32

[5] = Static R value for clinical TrDDI (FDA guidance); design: species or system human; settings: for R value, static model: eltrombopag perpetrator (75 mg), pitavastatin victim, Eq. 2, FDA cut‐off 1.1
[6] = Plasma protein binding and blood:plasma ratio (literature); assay type: in vitro ADME; settings: blood; fu.pl.P/Bl:Pl, Eq. 15, from literature values 3, 24
[7] = cited from earlier work
human hepatocytes [8] = settings: cited from earlier work
OATP1B1 and OATP1B3 = settings: OATP1B1 and OATP1B3, in vitro; cited from earlier work
[9] = model 1, conditional mode (minimum‐maximum) for 1 × 10^6 cells
[10] = model 1 micro‐rate constants, conditional mode (minimum‐maximum) for 1 × 10^6 cells
[11] = human hepatocytes over 70 seconds

k el [1]: 0.00367 s⁻¹ | F T.X, fraction transported (human hepatocytes [2]; CLup.X/(CLup.X+Pdif.X), Eq. 4): 0.96 (0.94–0.98) | K m.up.X or K I.up.X (human hepatocytes [2]; from micro‐rate constants, Eq. 7): 9,525 ng/mL | P def.X (human hepatocytes [2]; k bX scaled to a clearance): 0.62 (0.55‐0.67) µL/min/1 × 10^6 cells | P dif.X (human hepatocytes [2]; k fX scaled to a clearance): 0.55 (0.46–0.61) µL/min/1 × 10^6 cells | k bX, passive rate constant out of the cell (human hepatocytes [2]; [9]): 0.21 (0.18–0.22) /min | V max.up..X, maximum uptake velocity (human hepatocytes [2]; scaled to whole liver, Eq. 6): 3.0 × 10^7 ng/min/liver | P dif.X, passive diffusion into the cell (human hepatocytes [2]; scaled to whole liver, Eq. 8): 118 mL/min/liver | P def.X, passive diffusion out of the cell (human hepatocytes [2]; scaled to whole liver, Eq. 9): 104 mL/min/liver | V max.up (human hepatocytes [2]; transporter rate constants transformed, Eq. 6): 302 (177–639) pmol/min/1 × 10^6 cells | K m.up (human hepatocytes [2]; transporter rate constants transformed, Eq. 7): 22.1 (16.7–25.5) nmol/mL | fraction unbound ([3]; RED device, overnight, pitavastatin 0.3, 10 and 100 nmol/ml, eltrombopag 30 nmol/ml, read-out: f u.inc, fraction unbound in the incubation): 0.9 | fraction unbound ([3]; pitavastatin, estimated from RED f u.inc, Eq. 16, read-out: f u.L.X, fraction unbound in the liver): 0.026 | recovery ([3]; RED device, read-out: analytical recovery): 55% | CLmet.X, metabolic clearance ([4]; PBPK model value, Eqs. 10 and 11): 93 mL/min/liver | CLbi.X, biliary clearance ([4]; PBPK model value, Eqs. 12 and 13): 165 mL/min/liver | clearance ([4]; human, plasma and urine, PBPK model value, Eq. 14): 12 mL/min | K a.X, first‐order absorption rate constant ([4]; pitavastatin, from mean residence time PO and IV, Eq. 5): 0.07 min⁻¹ | R value, static model [5]: 1.07 | R value, static model ([5]; listed as Pitavastatin): 1.06–1.07 | estimated I in.max ([5]; pitavastatin as perpetrator, clinical dose 1–4 mg): 0.5 to 3 nmol/mL | fraction unbound [6]: 0.009
SMILES: O=C(O)C[C@H](O)C[C@H](O)/C=C/c1c(C2CC2)nc2ccccc2c1-c1ccc(F)cc1 [pitavastatin, pitavastatin calcium]
effect of pitavastatin on cellular eltrombopag (human hepatocytes [2]; experimental data, except at a pitavastatin incubation of 30–100 nmol/mL): No effect | k fX, passive rate constant into the cell (human hepatocytes [2]; [9]): 5.5 × 10^−4 (4.6 × 10^−4–6.1 × 10^−4) /min | k aX, transporter association rate constant (human hepatocytes [2]; [10]): 0.17 (0.14–0.25) /nmol/min | k dX, transporter dissociation rate constant (human hepatocytes [2]; [10]): 2.2 (1.97–2.37) /min | k tX, transporter translocation rate constant (human hepatocytes [2]; [10]): 1.65 (1.57–1.74) /min | biliary elimination of pitavastatin [7]: 53% | AUC0−∞ (literature) ([7]; pitavastatin only, oral 1 mg, converted to blood concentration, mean ± SD): 68 ± 49 ng·h/mL | Cmax ([7]; pitavastatin only, oral 1 mg, healthy volunteers, converted to blood concentration, mean ± SD): 38.8 ± 21.9 ng/mL | tmax (h) ([7]; pitavastatin only, oral 1 mg, healthy volunteers): 1 (0.5–1) h | V c.X, volume of the central compartment ([7]; pitavastatin, total blood volume): 5820. Total blood volume [ ^23 ] mL | K m.up.P (literature) (human hepatocytes [8]): 1.4 to 2 µM | P dif.P (literature) (human hepatocytes [8]): 0.4–13 µL/min/1 × 10^6 cells | V max.up.P (literature) (human hepatocytes [8]): 65–354 pmol/min/1 × 10^6 cells | k aP (literature) (human hepatocytes [8]; [11]): 7.4 (51%) /nmol/min/1 × 10^6 cells | k dP (literature) (human hepatocytes [8]; [11]): 6.3 /min/1 × 10^6 cells | k tP (literature) (human hepatocytes [8]; [11]): 4.3 (85%) /min/1 × 10^6 cells | P def.P (literature, micro‐rate constants) (human hepatocytes [8]; ref Grandjean et al. 11): 0.89 (27%) µL/min/1 × 10^6 cells | fraction transported (OATP1B1 and OATP1B3): 0.78
